68 compounds from patent US12195490B2, “STRAD-binding agents and uses thereof” (The Regents of the University of California, priority 2020, dated 2025) can be followed below.

Counter-ions that a name gives are not always drawn. Like-named read-outs stand apart in the source and are kept apart here.

The assay deals with ACHN cell line. Put plainly: drug screen of the SelleckChem kinase inhibitor library with and without 5 uM SU-329, Cell-Titer Glo after 5 days. Type of assay: cell-based.
The mark [1] stands for this setting: kinase inhibitor at 200 nM with and without 5 uM SU329, ACHN cell line, 5 days, Cell-Titer Glo.

Under setting [1], `Cc1cc2c(F)c(Oc3ncnn4cc(OC[C@@H](C)O)c(C)c34)ccc2[nH]1` [Brivanib (BMS-540215)] returned a log2fc of 0.1194. Take `CN1CCN(c2ccc(Nc3cc(-c4cccc(-n5ccc6cc(C7CC7)cc(F)c6c5=O)c4CO)cn(C)c3=O)nc2)CC1` [RN486]: the log2fc under setting [1] amounted to 0.08695. `CCCS(=O)(=O)Nc1ccc(F)c(C(=O)c2c[nH]c3ncc(Cl)cc23)c1F` [PLX-4720] had a log2fc under setting [1] of −0.05066. For `Cc1cc(Nc2nc(N[C@@H](C)c3ncc(F)cn3)ncc2Cl)[nH]n1` [AZD1480], the log2fc under setting [1] is reported as 0.4813. Take `COc1ccccc1-c1cc(Nc2cccc(CS(N)(=O)=O)c2)ncn1` [LDC000067]: the log2fc under setting [1] is listed as −0.05049. Consider `CC[C@@H]1C(=O)N(C)c2cnc(Nc3ccc(C(=O)N[C@H]4CC[C@H](N5CCN(CC6CC6)CC5)CC4)cc3OC)nc2N1C(C)C` [Volasertib (BI 6727)], for which the log2fc under setting [1] is given as 0.6372.

`C[C@@]1(C(=O)Nc2ccc(F)nc2)CCCN1c1nc(Nc2cc(C3CC3)n[nH]2)c2cccn2n1` [BMS-754807]: the log2fc under setting [1] is given as −1.139.

Turning to `CNC(=O)c1ccccc1Nc1nc(Nc2ccc(N3CCOCC3)cc2OC)ncc1Cl` [TAE226 (NVP-TAE226)], the log2fc under setting [1] is reported as −0.08897. As for `COc1cc2c(Nc3ccc(NC(=O)c4ccccc4)cc3)ncnc2cc1OCCCN1CCOCC1` [ZM 447439], the log2fc under setting [1] is recorded as 0.52. In the case of `CC(C)(C)NS(=O)(=O)c1cncc(-c2cc(F)c3nc(N)nn3c2)c1` [CZC24832], the log2fc under setting [1] amounted to 0.2139. Compound `O=C(c1ccc(/C=C/c2n[nH]c3ccccc23)cc1)N1CCNCC1` [KW-2449] had a log2fc under setting [1] of −0.0564. Same read-out and setting: with `Cn1c(=O)c(F)c(Nc2ccc(I)cc2F)c2c(=O)n(C[C@@H](O)CO)cnc21` [TAK-733, reference compound] the figure was 0.08618.

Compound `C[C@@H](Oc1cc(-c2cnn(C3CCNCC3)c2)cnc1N)c1c(Cl)ccc(F)c1Cl` [Crizotinib (PF-02341066)] had a log2fc under setting [1] of 0.196. Same read-out and setting: with `Cc1cc(Nc2cc(N3CCN(C)CC3)nc(Sc3ccc(NC(=O)C4CC4)cc3)n2)n[nH]1` [Tozasertib (VX-680, MK-0457)] the figure was 0.9265; with `Cc1cn(-c2cc(NC(=O)c3ccc(C)c(Nc4nccc(-c5cccnc5)n4)c3)cc(C(F)(F)F)c2)cn1` [Nilotinib (AMN-107)], 0.331; with `COc1cc2ncnc(Nc3ccc(F)c(Cl)c3)c2cc1OCCCN1CCOCC1` [Gefitinib (ZD1839)], 0.4905. For the compound `Cc1ccc(C(=O)Nc2cccc(C(F)(F)F)c2)cc1Nc1nc(-c2cccnc2)nc2c1cnn2C` [NVP-BHG712], the log2fc under setting [1] is recorded as 0.02396. Still for that read-out and setting: then `CN1CCN(Cc2ccc(-c3cnc4[nH]cc(-c5ccc6[nH]ccc6c5)c4c3)cc2)CC1` [URMC-099], with 0.3515; and `CCN1CCN(Cc2ccc(-c3cc4c(N[C@H](C)c5ccccc5)ncnc4[nH]3)cc2)CC1` [AEE788 (NVP-AEE788), AEE788, reference compound], with 0.07427. In turn, `COc1ccc(-c2nc(N3CCOCC3)c3sc(CN(C)c4ncc(C(=O)NO)cn4)cc3n2)cn1` [CUDC-907] showed a log2fc under setting [1] of 0.5895. Consider `Oc1c2ccccc2c2c3c(cccc13)N=N2` [SP600125, reference compound], for which the log2fc under setting [1] is on record as 0.06823. On the same count and under the same terms, then `CCN1CCN(C(=O)Cc2ccc(Nc3ncc(F)c(Nc4ccc(C(=O)Nc5ccccc5Cl)cc4)n3)cc2)CC1` [Aurora A Inhibitor I], with −0.1962; and `Cc1ccc(S(=O)(=O)/C=C/C#N)cc1` [BAY 11-7082, reference compound], with −0.1258; and `COc1cc(F)c(F)c(Nc2ccc(I)cc2F)c1NS(=O)(=O)C1(C[C@H](O)CO)CC1` [Refametinib (RDEA119, Bay 86-9766)], with 0.4867. `CCN1CCN(Cc2ccc(Nc3ncc(F)c(-c4cc(F)c5nc(C)n(C(C)C)c5c4)n3)nc2)CC1` [abemaciclib (LY2835219)]: the log2fc under setting [1] worked out at 0.1618. In the case of `N#CC[C@H](C1CCCC1)n1cc(-c2ncnc3[nH]ccc23)cn1` [Ruxolitinib (INCB018424)], under setting [1], the log2fc was −0.1253. On to `Cc1ccc(NC(=O)c2cccc(N(C)C)c2)cc1NC(=O)c1ccc(O)cc1` [ZM 336372], for which the log2fc under setting [1] came to 0.2177. Turning to `C[C@@H](Oc1cc(-n2cnc3ccc(CN4CCN(C)CC4)cc32)sc1C(N)=O)c1ccccc1C(F)(F)F` [GSK461364], under setting [1], the log2fc turned out to be 0.9925.

In turn, `COc1cc2ncnc(Oc3ccc(CC(=O)Nc4cnn(C(C)C)c4)cc3)c2cc1OC` [AZD2932] displayed a log2fc under setting [1] of 0.4428. As for `O=C(O)c1ccc(Nc2ncc3c(n2)-c2ccc(Cl)cc2C(c2c(F)cccc2F)=NC3)cc1` [MLN8054], the log2fc under setting [1] worked out at 0.07059. Regarding `CO[C@H]1C[C@@H]2CC[C@@H](C)[C@@](O)(O2)C(=O)C(=O)N2CCCC[C@H]2C(=O)O[C@H]([C@H](C)C[C@@H]2CC[C@@H](OCCO)[C@H](OC)C2)CC(=O)[C@H](C)/C=C(\C)[C@@H](O)[C@@H](OC)C(=O)[C@H](C)C[C@H](C)/C=C/C=C/C=C/1C` [Everolimus (RAD001)], the log2fc under setting [1] is reported as −1.364. `CN1CCN(c2nc(C3=C(c4c[nH]c5ccccc45)C(=O)NC3=O)c3ccccc3n2)CC1` [Sotrastaurin] showed a log2fc under setting [1] of 0.054. Compound KX2-391 gave a log2fc under setting [1] of 0.3892. The same measure, in the same setting: then `N#C/C(=C/c1ccc(O)c(O)c1)C(=O)NCc1ccccc1` [AG-490 (Tyrphostin B42), AG-490, reference compound], with −0.01509; and `C[C@H](NC(=O)/C(C#N)=C/c1cccc(Br)n1)c1ccccc1` [WP1066], with −0.4551; and `CN(C)Cc1cccc(N/C(=C2\C(=O)Nc3cc(C(=O)N(C)C)ccc32)c2ccccc2)c1` [BIX 02189], with −0.08248. Take `CNC(=O)c1cc(Oc2ccc(NC(=O)Nc3ccc(Cl)c(C(F)(F)F)c3)c(F)c2)ccn1` [Regorafenib (BAY 73-4506)]: the log2fc under setting [1] is 0.8333. Under setting [1], `CS(=O)(=O)N1CCN(Cc2cc3nc(-c4cccc5[nH]ncc45)nc(N4CCOCC4)c3s2)CC1` [Pictilisib (GDC-0941)] came in with a log2fc of −1.17.

On to `CS(=O)(=O)c1cccc(CNc2nc(Nc3ccc4c(c3)CCC(=O)N4)ncc2C(F)(F)F)c1` [PF-573228], for which, under setting [1], the log2fc was 0.4325. On to `O=c1c(-c2ccc(O)cc2)coc2cc(O)cc(O)c12` [Genistein], for which, under setting [1], the log2fc stood at 0.05262. In the case of `Cn1cc(-c2ccc3nnc(C(F)(F)c4ccc5ncccc5c4)n3n2)cn1` [JNJ-38877605], the log2fc under setting [1] amounted to 0.02907. As to `Fc1cc(-c2cccc3ncc(-c4cnn(C5CCNCC5)c4)nc23)cc(F)c1CN1CCOCC1` [NVP-BSK805 2HCl], under setting [1], the log2fc is −0.09499. On to `O=C(NOC[C@H](O)CO)c1ccc(F)c(F)c1Nc1ccc(I)cc1F` [PD0325901], for which the log2fc under setting [1] is recorded as 0.3925. As for `Cl.Cl.O=S(=O)(NCCNC/C=C/c1ccc(Br)cc1)c1cccc2cnccc12` [H 89 2HCl], the log2fc under setting [1] is given as −0.01404. `NC1(Cc2ccc(Cl)cc2)CCN(c2ncnc3[nH]ccc23)CC1` [CCT128930] displayed a log2fc under setting [1] of −0.2364. On the same count and under the same terms, with `CN1CCN(S(=O)(=O)c2ccc(-c3cnc(N)c(C(=O)Nc4cccnc4)n3)cc2)CC1` [AZD2858] the figure was 0.1991. Same read-out and setting: then `C[C@@H](N)[C@H]1CC[C@H](C(=O)Nc2ccncc2)CC1.Cl.Cl` [Y-27632 2HCl], with −0.01003; and `CN1CCN(C2CCN(C(=O)Nc3cc(Oc4ccc(NC(=O)C5(C(=O)Nc6ccc(F)cc6)CC5)c(F)c4)ccn3)CC2)CC1` [Golvatinib (E7050)], with −0.1341; and `N#CC1(c2ccc(NC(=O)c3cccnc3NCc3ccncc3)cc2)CCCC1` [Apatinib], with 0.257. `COc1ccc2c(c1)c(C1=C(c3c[nH]c4ccccc34)C(=O)NC1=O)cn2CCCN(C)C` [Go 6983] displayed a log2fc under setting [1] of 0.08992. Take `Cc1cc(Nc2cc(N3CCN(C)CC3)nc(/C=C/c3ccccc3)n2)n[nH]1` [ENMD-2076]: the log2fc under setting [1] is on record as 0.6799.

`Nc1ncnc2c1c(-c1cnc3[nH]ccc3c1)nn2C1CCCC1` [PP121] showed a log2fc under setting [1] of −0.5206.

On to `CNC(=O)c1cc(Oc2ccc(NC(=O)Nc3ccc(Cl)c(C(F)(F)F)c3)cc2)ccn1` [Sorafenib Tosylate], for which the log2fc under setting [1] is on record as −0.2533. Turning to `COc1ccc(CNC(=O)Nc2ncc([N+](=O)[O-])s2)cc1` [AR-A014418], under setting [1], the log2fc turned out to be 0.1293. Under setting [1], `O=C(NC(NC(=S)Nc1ccc(F)c([N+](=O)[O-])c1)C(Cl)(Cl)Cl)C(c1ccccc1)c1ccccc1` (centres unmarked) [CGK 733] displayed a log2fc of 0.1923. On to `C=CC(=O)Nc1cccc(Nc2nc(Nc3ccc(OCCOC)cc3)ncc2F)c1` [CC-292 (AVL-292)], for which the log2fc under setting [1] was −0.2142.

In turn, `COCCOc1ccc2c(c1)ncn2-c1ccc2cccc(N3CCC(N)CC3)c2n1` [CP-673451] yielded a log2fc under setting [1] of 0.4234. On to `OCCn1cc(-c2ccc3c(c2)CC/C3=N\O)c(-c2ccncc2)n1` [GDC-0879], for which the log2fc under setting [1] was 0.3592.

Under setting [1], `CCN(CC)CCCCNc1ncc2cc(-c3cc(OC)cc(OC)c3)c(NC(=O)NC(C)(C)C)nc2n1` [PD173074] came in with a log2fc of 0.1032. Still for that read-out and setting: with `Nc1nc(Nc2ccc(S(N)(=O)=O)cc2)nn1C(=O)c1c(F)cccc1F` [JNJ-7706621] the figure was 0.3857. Under setting [1], `CNC(=O)c1ccccc1Sc1ccc2c(/C=C/c3ccccn3)n[nH]c2c1` [Axitinib] showed a log2fc of 0.00155. With `CCN1/C(=C/C(C)=O)Sc2ccc(OC)cc21` [TG003], the log2fc under setting [1] was 0.4163. Under setting [1], `COC(=O)Nc1ccc(-c2nc(N3CCOCC3)c3cnn(C4CCN(C(=O)OC)CC4)c3n2)cc1` [WYE-354] registered a log2fc of −1.143. In the case of CHIR-98014, the log2fc was 3.928. `S=C(NCc1ccc2c(c1)OCO2)N1CCN(c2ncnc3c2oc2ccccc23)CC1` [Amuvatinib (MP-470)]: under setting [1], the log2fc is −0.2594. Still for that read-out and setting: with `Cn1cnc2c(F)c(Nc3ccc(Br)cc3Cl)c(C(=O)NOCCO)cc21` [Selumetinib (AZD6244), selumetinib, reference compound] the figure was 0.357; with `Cn1cc(/C=C2\C(=O)Nc3cccnc32)c2ccccc21` [GW441756], −0.09333. As for `O=C(NCc1ccccc1)c1csc(Nc2ccncn2)n1` [Thiazovivin], the log2fc under setting [1] is reported as −0.4963.
